Data as given in paper PMC12915096, “AI‐Driven Acceleration of Fluorescence Probe Discovery” (Advanced Science, 2025).

Key:
[1] = system: SU-DHL-6 lymphoma xenografts; assay: Tumor model ex vivo fluorescence imaging; format: in vivo, mice; settings: 10 mg/kg i.v., 4 h post-injection
Experimental: SU-DHL-6 cells were suspended in 100 μL of 50% Matrigel / PBS mixture. Hun dred microliters of SU-DHL-6 cell suspensions, corresponding to 1.8 × 10^6 cells per mouse, were subcutaneously injected into the left flank region of NSFG mice (female, aged 8-10 weeks). The mice were monitored for tumor formation. […] Mice were sacrificed after 4 h and tissues (heart, liver, spleen, lung, kidney, and tumor) were obtained. The fluorescence signals in tissues were recorded using the […] imaging system.

[2] = target: T1, BCL-2 in U2932 and SU-DHL-6 cells (Homo sapiens, UniProt P10415); assay: Cell imaging with anti-BCL-2 co-staining; format: cell-based; settings: U2932 and SU-DHL-6, 5 µM obatoclax
T1 construct: endogenous in cells; host or cells: U2932 and SU-DHL-6
T1 sequence (P10415 whole entry): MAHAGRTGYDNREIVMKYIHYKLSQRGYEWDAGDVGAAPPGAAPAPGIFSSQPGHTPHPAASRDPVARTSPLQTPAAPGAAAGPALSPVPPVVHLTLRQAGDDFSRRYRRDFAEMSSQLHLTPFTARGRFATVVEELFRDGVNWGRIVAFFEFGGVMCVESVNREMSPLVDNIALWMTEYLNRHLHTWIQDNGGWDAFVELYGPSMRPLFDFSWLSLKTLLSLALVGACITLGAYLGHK
Experimental: Cells of the logarithmic growth phase were taken and transferred them to centrifuge tubes (5 × 10^4 cells/mL). After centrifugation, the culture medium was discarded. Cells were washed once with PBS, centrifuged, and the supernatant aspirated. One milliliter of ice methanol was added, followed by gentle resuspension and fixation for 30 min. After centrifugation, the supernatant was discarded, and cells were washed twice with PBS. Subsequently, 500 µL of 5% BSA blocking solution was added, and cells were gently resuspended before transfer to a 35‐mm confocal dish for sealing and incubation at room temperature for 1 h. The cell suspension was then added into a centrifuge tube, centrifuged to remove blocking solution, and resuspended in 500 µL of primary antibody solution (Proteintech, 12789‐1‐AP, 1:500). Cells were transferred to a confocal dish and incubated overnight at 4°C. After centrifugation to remove primary antibody, cells were washed twice with PBS. Next, 500 µL of secondary antibody (Beyotime, A0468, 1:500) was added, followed by incubation at room temperature for 1 h. Following centrifugation, the cells were washed twice with PBS and stained with 500 µL of DAPI solution (Beyotime, C1006) for 10 min at room temperature. […] After centrifugation, cells were washed twice with PBS, resuspended in 1 mL PBS, transferred to a confocal dish, and imaged with a laser confocal microscope.

[3] = Photophysical property characterization (absorption/emission spectra, quantum yield); format: physicochemical; settings: for λAbs b, spectra assays data / λEm b, spectra assays data / ε: acetonitrile (MeCN); for λAbs b, spectra assays data / λEm b, spectra assays data: 10 µM, Extended Data Table 1; for ε: in M-1·cm-1 (unit assumed)
Experimental: For absorption and emission spectra measurements, the molecules were diluted to 10 µM in various solvents, including EtOH, DMSO, MeCN, H2O, and MeOH. Prior to analysis, the prepared samples were equilibrated at 25°C for 5 min to ensure consistent conditions. Subsequently, their absorption and emission spectra were measured. The absolute fluorescence quantum yield of these probes was measured using the FLS1000 Photoluminescence Spectrometer (Edinburgh Instruments Ltd.).

BCL-2 [4] = target: T2, BCL-2 (Homo sapiens, UniProt P10415); settings: previous reports; ref [36], [37], [38]; cited from earlier work
T2 sequence (P10415 whole entry, species assumed): as the sequence (P10415 whole entry) above

BCL-2 [5] = target: T2, BCL-2; assay: Fluorescence turn-on response / spectral assay with BCL-2; format: binding
Experimental: (§1) To evaluate the fluorescence turn‐on responses to targets, protein (2 µM) were incubated with probe solutions (2 µM, PBS containing 10% DMSO) for 60 min at room temperature. For probe B3, specific experiments involved co‐incubation of 5 µM B3 with 10 µM TDP‐43 aggregates for 60 min.

[6] = target: T3, BCL-2 in neuroblastoma tumor tissue sections (Homo sapiens, UniProt P10415); assay: Pathological staining, colocalization with anti-BCL-2 antibody
T3 construct: from tissue; host or cells: human neuroblastoma tissue sections
T3 sequence (P10415 whole entry): as above
Experimental: (§2) Human brain tissues of AD or ALS patients and human neuroblastoma tissues were immersed in xylene three times for 5 min to remove paraffin, followed by two 10 min washes with a series of diluted alcohols (100, 90%, 70%, and 50% ethanol in dd water, v/v). Following PBS washing, heat‐mediated antigen retrieval was per‐ formed in 10 mM citrate buffer (pH 9.0) using a temperature‐gradient protocol: samples were gradually heated to boiling point through sequential low‐to‐high intensity thermal exposure (total 15 min duration), followed by natural cooling to ambient temperature. […] To avoid the fluorescence overlap between antibody staining and probe labeling, specific secondary antibodies were selected. […]
(§3) The fluorescence images of tissues were acquired by a scanning microscope (KF‐FL‐020, KFBIO).
(§4) All experiments were conducted over 3–5 independent experiments, and error bars represent the S.E.M across these runs. […] Statistical analysis was performed using GraphPad Prism 8.3.0, with significance determined by one‐way ANOVA followed by Tukey's or Dunnett's post hoc tests. […] Colocalization analysis was performed using the Pearson's correlation coefficient (PCC) calculated via ImageJ software.

[7] = target: T4, TDP-43 aggregates in ALS brain sections (Homo sapiens, UniProt Q13148); assay: Pathological staining, colocalization with anti-TDP-43 antibody; settings: brain sections from an ALS patient
T4 construct: from tissue; host or cells: paraffin sections of human ALS patient brain
T4 sequence (Q13148 whole entry): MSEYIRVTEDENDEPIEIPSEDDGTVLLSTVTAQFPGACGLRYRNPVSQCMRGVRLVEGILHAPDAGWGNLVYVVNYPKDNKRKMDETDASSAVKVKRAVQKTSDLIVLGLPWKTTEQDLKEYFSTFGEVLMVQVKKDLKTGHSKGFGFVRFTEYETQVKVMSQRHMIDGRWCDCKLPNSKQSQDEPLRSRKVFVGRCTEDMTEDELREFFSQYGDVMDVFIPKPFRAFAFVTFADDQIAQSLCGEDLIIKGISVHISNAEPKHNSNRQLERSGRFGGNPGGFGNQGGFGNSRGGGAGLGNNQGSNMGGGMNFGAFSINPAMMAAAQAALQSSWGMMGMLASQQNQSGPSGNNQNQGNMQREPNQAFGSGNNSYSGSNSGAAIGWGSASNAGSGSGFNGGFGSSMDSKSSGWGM
Experimental: as §2, §3, §4

TDP-43 aggregates = target: T5, TDP-43 aggregates (Homo sapiens, UniProt Q13148); assay: Fluorescence turn-on response / spectral assay with TDP-43 aggregates; format: binding
T5 construct: purchased Sangon Biotech
T5 sequence (Q13148 whole entry): as above
Experimental: as §1

[8] = Photostability evaluation under continuous excitation; format: physicochemical; settings: 3 h illumination, PBS with 10% DMSO
Experimental: For photostability evaluation, PE859, 859‐1, or 859‐1 were diluted to 10 µM in PBS containing 10% DMSO. The solutions were loaded into a fluorescence spectrometer and the fluorescent intensity at maximum emission wavelength was recorded under continuous excitation for 180 min.

tau aggregates [9] = target: T6, tau aggregates (Homo sapiens, UniProt P10636); assay: Fluorescence turn-on response / spectral assay with tau aggregates; format: binding
T6 construct: purchased QYAOBIO
T6 sequence (P10636 1-441 isoform P10636-8): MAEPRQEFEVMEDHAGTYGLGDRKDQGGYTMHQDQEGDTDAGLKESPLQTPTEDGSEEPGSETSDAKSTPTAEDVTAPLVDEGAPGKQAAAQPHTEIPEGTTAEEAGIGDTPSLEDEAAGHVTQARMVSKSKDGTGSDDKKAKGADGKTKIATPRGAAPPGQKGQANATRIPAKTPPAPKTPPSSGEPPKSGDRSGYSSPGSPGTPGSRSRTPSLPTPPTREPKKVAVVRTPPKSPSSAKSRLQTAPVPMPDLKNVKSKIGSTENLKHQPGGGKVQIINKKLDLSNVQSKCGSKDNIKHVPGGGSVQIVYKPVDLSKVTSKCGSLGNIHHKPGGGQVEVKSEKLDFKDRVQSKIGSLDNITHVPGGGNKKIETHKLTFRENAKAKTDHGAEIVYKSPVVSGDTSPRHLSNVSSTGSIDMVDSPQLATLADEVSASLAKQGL
Experimental: as §1

tau aggregates [10] = target: T6, tau aggregates; assay: Dissociation constant measurement by fluorescence titration; format: binding; settings: tau aggregates titrated with probe, 37°C 1 h
Experimental: The human recombinant tau protein (1 mg, QYAOBIO) was dissolved in PBS containing 110 µM heparin sodium to a final concentration of 55 µM. The solution was shake vigorously (100 rpm, Crystal IS‐RDV1) at 37°C for 72 h. Similarly, the human recombinant TDP‐43 protein (0.9 mg, Sangon Biotech) was dissolved in 1 mL Tris buffer (50 mM Tris, 300 mM NaCl, 10% Glycerol, pH 8.0) and was shake vigorously (200 rpm, Crystal IS‐RDV1) at 37°C for 48 h. Aggregates formation was monitored and verified using ThT fluorescence assay. The resulting aggregates was divided into aliquots and stored at −20°C before use.
To 1 µM protein solution in PBS containing 10% DMSO, different concentrations of probe was added (final concentration 0, 1, 2, 5, 8, 10, 20, 50, 80, 100, 200, 500, 800, and 1000 nM). The mixture was dispensed into 96‐well plates and incubated at 37°C for 1 h. The fluorescence intensity of the samples was recorded at maximum emission wavelength of probe by using a microplate reader (PerkinElmer, VICTOR Nivo^TM). Dose‐ response curves were generated by plotting fluorescence intensity against probe concentration, and equilibrium dissociation constants were calculated via nonlinear regression analysis in GraphPad Prism.

[11] = target: tau aggregates in AD brain sections (Homo sapiens, UniProt P10636); assay: Pathological staining, colocalization with anti-tau antibody
Sequence of tau aggregates in AD brain sections (P10636 623-695 limits assumed): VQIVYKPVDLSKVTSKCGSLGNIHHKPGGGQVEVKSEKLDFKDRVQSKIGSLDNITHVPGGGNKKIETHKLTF
Experimental: as §2, §3, §4

[12] = Selectivity evaluation (fluorescence response to non-target analytes); settings: probe 1 µM, analytes 2 µM, 60 min
Experimental: For selectivity evaluation, the probes were diluted to a final concentration of 1 µM and treated with 2 µM of various analytes. After 60 min of incubation at room temperature, fluorescence intensity was recorded at the specific excitation and emission wavelengths for each probe. The maximum emission wavelength intensity was plotted against the respective analytes.

tau = settings: previous reports; ref [36], [37], [38]; cited from earlier work

| Quantum yield experimental ([3]; MeCN) | log10ε experimental ([3]; MeCN) | λAbs b, spectra assays data [3] [nm] | λEm b, spectra assays data [3] [nm] | ε [3] | Pearson Correlation Coefficient (PCC) with anti-tau antibody staining [11] | λAbs ([3]; DMSO) [nm] | λEm ([3]; DMSO) [nm] | λAbs ([3]; EtOH, Extended Data Table 5) [nm] | λEm ([3]; EtOH, Extended Data Table 5) [nm] | λAbs ([3]; H2O, Extended Data Table 5) [nm] | λAbs ([3]; MeCN, Extended Data Table 5) [nm] | λEm ([3]; MeCN, Extended Data Table 5) [nm] | λAbs ([3]; MeOH, Extended Data Table 5) [nm] | λEm ([3]; MeOH, Extended Data Table 5) [nm] | Structure (SMILES) | Fluorescence turn-on response to tau aggregates (tau aggregates [9]) | further results |
| --- | --- | --- | --- | --- | --- | --- | --- | --- | --- | --- | --- | --- | --- | --- | --- | --- | --- |
| 0.0069 | 4.5902 | 480 | 540 | 38920 | – | – | – | – | – | – | – | – | – | – | COC1=CC(c2cc3ccccc3[nH]2)=N/C1=C\c1[nH]c(C)cc1C [obatoclax] | – | Accumulation in tumors versus other organs [1]: higher accumulation in tumors compared to other organs; Detection of BCL-2 in overexpressing cell lines [2]: effectively detected; Ki (BCL-2 [4]): 220 nM; Blue shift of emission in the presence of BCL-2 (BCL-2 [5]): 7 nm; Fluorescence turn-on response to BCL-2 (BCL-2 [5]): most significant fluorescence enhancement; PCC with anti-BCL-2 antibody staining [6]: 0.80 |
| 0.2891 | 4.2923 | 370 | 443 | 19600 | – | – | – | – | – | – | – | – | – | – | Cc1ccc(Cl)cc1NC(=O)c1cc2c(=O)n3cccc(C)c3nc2n1C [B3] | – | PCC with anti-TDP-43 antibody staining [7]: 0.95; Blue shift of emission upon interaction with TDP-43 aggregates (TDP-43 aggregates): 30 nm; Fluorescence turn-on response to TDP-43 aggregates (TDP-43 aggregates): most significant fluorescence enhancement |
| – | – | 382 | 450 | 19800 | – | – | – | – | – | – | – | – | – | – | Cn1c(C(=O)Nc2ccc(OC(F)(F)F)cc2)cc2c(=O)n3ccccc3nc21 [B5] | – | – |
| 0.0063 | 4.9784 | – | – | – | 0.95 | 539 | 610 | 513 | 588 | 510 | 514 | 594 | 514 | 595 | COc1cc(OCc2ccccn2)ccc1/C=C/C1=[O+][B-](F)(F)OC(/C=C/c2ccc3cc[nH]c3c2)=C1 [859-1] | substantially increased fluorescence intensity | Fluorescence intensity variation under continuous illumination [8]: 152%; Emission redshift when incubated with tau aggregates (tau aggregates [9]; probe 2 µM, tau aggregates 4 µM): 6 nm; Kd (tau aggregates [10]): 217 nM; Emission redshift compared to PE859 ([3]; MeCN): 192 nm; Fluorescence response to non-target analytes (selectivity) [12]: minimal response to other analytes |
| 0.1223 | 4.9675 | 335 | – | 92780 | 0.85 | 343 | 408 | 335 | 397 | 352 | 338 | 402 | 337 | 410 | COc1cc(OCc2ccccn2)ccc1/C=C/c1cc(/C=C/c2ccc3cc[nH]c3c2)[nH]n1 [PE859] | most significant fluorescence enhancement | IC50 (tau): 660 nM; Blue shift in emission maximum upon binding to tau aggregates (tau aggregates [9]): 10 nm; λEm ([3]; H2O, Extended Data Table 5): 422 nm |

| Structure (SMILES) | Quantum yield experimental ([3]; MeCN) | log10ε experimental ([3]; MeCN) | λAbs b, spectra assays data [3] [nm] | λEm b, spectra assays data [3] [nm] | ε [3] | Pearson Correlation Coefficient (PCC) with anti-tau antibody staining [11] | λAbs ([3]; DMSO) [nm] | λEm ([3]; DMSO) [nm] | λAbs ([3]; EtOH, Extended Data Table 5) [nm] | λEm ([3]; EtOH, Extended Data Table 5) [nm] | λAbs ([3]; H2O, Extended Data Table 5) [nm] | λAbs ([3]; MeCN, Extended Data Table 5) [nm] | λEm ([3]; MeCN, Extended Data Table 5) [nm] | λAbs ([3]; MeOH, Extended Data Table 5) [nm] | λEm ([3]; MeOH, Extended Data Table 5) [nm] | Fluorescence turn-on response to tau aggregates (tau aggregates [9]) | further results |
| --- | --- | --- | --- | --- | --- | --- | --- | --- | --- | --- | --- | --- | --- | --- | --- | --- | --- |
| Cc1ccc(-n2c(/C=C\c3ccc(F)c(F)c3)nc3ccccc3c2=O)c(C)c1 [B6] | – | – | 330 | 450 | 20200 | – | – | – | – | – | – | – | – | – | – | – | – |
